The nature of series [1]: MP-catalyzed peroxynitrite decomposition monitored at 302 nm. The format is biochemical. Conditions: 100 μM peroxynitrite, absence of added reductants. How it is done:
Peroxynitrite (100 μM) was added to rapidly stirred cuvettes at 37° C. containing the indicated concentrations of MPs in 0.1 M potassium phosphate, pH 7.4. Ascorbate was added to 150 μM where indicated. Peroxynitrite decomposition was monitored at 302 nm using a Hewlett-Packard diode-array spectrophotometer. Apparent rates (kapparents^−1, average of n=3) were plotted versus MP concentration to determine rate constants in M^−1s^−1.
Reactions contained the indicated concentration of FeTCPPin 1.4 ml of 0.1 M potassium phosphate, pH 7.4 in the absence or presence to 150 μM ascorbic acid. Peroxynitrite (100 μM) was added to rapidly stirred cuvettes at 37° C. and the decay of peroxynitrite was monitored continuously at 302 nm. Decay data were fitted to the equation describing first order decay to obtain apparent decay rates (kapparent sec^−1). Apparent decay rates as a function of FeTCPP were fitted by linear regression and the rate constant was obtained slope of the line.
Peroxynitrite (100 μM) decomposition was determined at 302 nm using a Hewlett-Packard diode-array spectrophotometer fitted with a temperature-controlled cuvette chamber and a water-driven cuvette stirrer. Bolus additions of peroxynitrite were made to vigorously stirred cuvettes containing varying concentrations of MPs (see Table III) while data were collected at a rate of ten points/sec. […] Each reaction was repeated three times and only the first additions of peroxynitrite were averaged. Data were exported for fitting and plotting. Apparent rates of peroxynitrite decomposition were plotted as a function of metalloporphyrin concentration (as shown in FIG. 5) to determine concentration-independent rate constants at 37° C.
Rates of peroxynitrite (100 μM) decomposition were determined at different MP concentrations. Ascorbate was added to 150 μM where indicated. […] Apparent rate constants were plotted versus MP concentration (as in FIG. 5A,B) to determine true rate constants in M^−1s^−1±standard error.

The nature of series [2]: Ascorbate oxidation by MPs monitored at 266 nm. The format is biochemical. Conditions: MP 10 μM, 50 μM ascorbate, 0.1 M potassium phosphate pH 7.4, ± standard error, n=3. How it is done:
(§1) In order to test the hypothesis that Mn(II)- or Fe(II)-porphyrins would be capable of carrying out two-electron reductions of peroxynitrite and thereby decreasing rather than increasing its reactivity, attempts were made to pre-reduce these transition metal-containing MPs prior to addition of peroxynitrite.
Table V. Ascorbate oxidation by MPs. MPs (10 μM) were added to stirred cuvettes containing 0.1 M potassium phosphate, pH 7.4 and 50 μM ascorbate. Ascorbate oxidation was monitored at 266 nm (ηm=17,700 M^−1cm^−1). Oxidation rates (±standard errors) were determined by fitting the initial linear portion of each curve and averaging the rates (n=3).

For series [3] the following is noted: MP 5 μM, GSH 2 mM, 0.1 M potassium phosphate pH 7.4, 37° C. Here is the method: Aliquots (14 μl) were removed at 10 min intervals and added to 1.4 of 0.1 M potassium phosphate, pH 7.4 containing 0.2 mM dithionitrobenzoic acid (Ellman's Reagent) and 50 μM EDTA. GSH concentration was determined by the change in 430 nm absorbance. The extinction coefficient at 430 nm was determined to be 13,900 M^−1cm^−1 using a fresh GSH solution standardized by weight.
as §1

Series [4] is described as follows: MP-catalyzed nitration of HPA: effect of pH, reductants and serum. The format is biochemical. How it is done: Single additions of 100 μM peroxynitrite were made to reactions containing ascorbate or GSH. Three sequential additions of 100 μM peroxynitrite were made to all other reactions.
(§2) This level of bicarbonate results in rapid saturation of the solution with carbon dioxide (˜1 mM). Solutions were placed into a rapidly stirred cuvette and nine bolus additions (50 μM×3, 100 μM×3, and 200 μM×3) of peroxynitrite were made sequentially while the absorbance was monitored. Increasing amounts of peroxynitrite were added in a sequential manner in order to determine whether nitration efficiency varied with concentration and to determine whether nitration catalysis was maintained with multiple additions (see FIG. 6 inset). Nitration efficiency was defined as the amount of nitropeptide formed per amount of peroxynitrite added and was calculated for each peroxynitrite addition; the values shown are the average of all nine peroxynitrite additions. The absorbance changes associated with nitrotyrosine peptide production were monitored simultaneously at 380, 430, and 460 nm. The extinction coefficients for nitrated GYA at pH 7.4 are 4,400 M^−1cm^−1 at 430 nm and 2,200 M^−1cm^−1 at both 380 and 460 nm. […] Wavelengths used to quantify nitrotyrosine production were chosen to minimize interference by the particular metalloporphyrin used. Experiments using HPA as a nitration target (FIG. 7) contained 8 mM HPA in either 0.1 M potassium phosphate, pH 7.4 or 0.1 M sodium borate, pH 9.1.

Series [5] relates to ALS-SOD1 (G93A) transgenic mice. The conditions noted are these: cited from earlier work.
The nature of series [6]: Peroxynitrite-mediated nitration of GYA peptide. The format is biochemical. The conditions noted are these: 2 mM GYA, 10 μM MP or SOD subunit, 1 mM CO2, pH 7.4, 37° C. Here is the method:
Nitration efficiency, defined as the moles of nitrated GYA peptide formed per mole of peroxynitrite added, was determined at a fixed concentration of 10 μM MP or Cu,Zn SOD subunit, or 1 mM CO2 as described below. Increasing amounts of peroxynitrite were added in a sequential manner in order to determine whether nitration efficiency varied with concentration and to determine whether nitration catalysis was maintained with multiple additions (see INSET). Nitration efficiency was calculated for each peroxynitrite addition; the values shown are the average of all nine peroxynitrite additions. Absorbance changes were monitored simultaneously at 380, 430, and 460 nm.
as §2, with “For nitration of GYA peptide (see FIG. 6), reaction solutions contained 2 mM GYA and 10 μM of the indicated MP in 1.4 ml of 0.1 M potassium phosphate, pH 7.4 at 37° C. Comparisons with two previously characterized nitration catalysts, human Cu,Zn superoxide dismutase (hCu,Zn SOD) and carbon dioxide, were made using 10 μM of SOD subunit and 25 mM potassium bicarbonate, respectively, which was pH-adjusted to 7.4. This” for “This”
The relative abilities of several MPs to enhance nitration of the tripeptide GYA was compared using 10 μM MP and sequential bolus additions of 50 μM (×3), 100 μM (×3), and 200 μM (×3)peroxynitrite (FIG. 6, inset).

The conditions of series [7]: references (43), (5); cited from earlier work.
A further series has as its system bovine serum albumin. Conditions: reference (35); cited from earlier work.

Turning to `C[n+]1ccc(-c2c3nc(c(-c4cc[n+](C)cc4)c4ccc([n-]4)c(-c4cc[n+](C)cc4)c4nc(c(-c5cc[n+](C)cc5)c5ccc2[n-]5)C=C4)C=C3)cc1.[Cl-].[Cl-].[Cl-].[Cl-].[Cl-].[Fe+3]` [FeTMPyP, Iron (III) meso-tetra-(N-methyl-4-pyridyl)-porphine chloride], the “Rate Constants for MP-Catalyzed Decomposition of Peroxynitrite (pH 7.4, 37° C.)” value in [1] is listed as 7.9 × 10^5 ± 0.9 M^−1s^−1. Besides, the “Rate of Ascorbate Oxidation” value in series [2] stood at 146.20 ± 7.2 µM/min. The “rate of GSH oxidation” value in series [3] came out at 22 µM/min. Moreover, the “enhancement of nitration yield at pH 9.1” value in [4] (8 mM HPA, 10 μM MP, 0.1 M sodium borate pH 9.1, versus non-catalyzed) is 10.7 fold. In series [4] (concentrations which eliminated non-catalyzed nitration), the “effect of ascorbate and GSH on nitration enhancement” value was “much less inhibitory effect”. For the same compound, the “ascorbate concentration giving complete inhibition of nitration enhancement” value in series [4] (dose-dependent, not shown) is 1.5 mM. In addition, in series [4] (fresh human serum 1:10 added prior to peroxynitrite), the “effect of serum on nitration enhancement” value is given as “much less effect”. Further, the “effect of HOCl on the MP” value (50 μM HOCl) is “appeared to destroy the metal-pyrrole center”. In addition, the “oxidation by H2O2” value (0.5 mM H2O2, 20 min) is listed as “did not appear to oxidize”.

Turning to `Nc1nc2ccc(OC(F)(F)F)cc2s1` [Rilutek, riluzole], in series [5], the extension of lifespan entry is reported as “about 7 days”.

As for “Cu,Zn superoxide dismutase: human Cu,Zn superoxide dismutase, previously characterized endogenous nitration catalyst”, in [6], the “enhancement of nitration yield” value was found to be 2 fold. Also, in [7], the “rate of reaction with superoxide” value was 2e+09 M⁻¹ s⁻¹.

With “iron(III)-tetra-(2,4,6,-trimethyl-3-,3-disulfonatophenyl)-porphyrin [FeTMPS]”, the “nitration of tyrosine residues in bovine serum albumin” value in the series with bovine serum albumin is on record as “inhibited”.

The values are drawn from patent publication US6372727B1, “Metalloporphyrin treatment of neurologic disease” (UAB Research Foundation, priority 1999, dated 2002).
